How the values were obtained:
[1] = system: spleen T cell proliferation; test: Ex vivo T-cell proliferation assay with tumor-derived cells; type: cell-based, mouse
4T1 tumors = test: 4T1 breast cancer model; type: in vivo, mouse
Protocol: Plasma is collected for pharmokinetic (PK) analysis.
Briefly, in this study, treatment was initiated when tumors reached approximately 100 mm^3. […] 1. […] Vehicle+anti-PD-L1 (200 ug); 4.
Luciferin measurements were taken twice a week.

[2] = Target organ toxicity (TOT) study, 10 days oral; type: in vivo; conditions: rat
Protocol: A target organ toxicity (TOT) study was performed in rats. […] This study assessed clinical observations/mortality, body weights, clinical pathology, toxicokinetics, and histopathology of select tissues. The tissues studied were: Adrenal gland, Bone marrow (femur), Brain, Small Intestine (including GALT), Heart, Large Intestine, Kidney, Stomach, Liver, Pancreas, Spleen, Testis, and Thymus. Doses were selected based on repeat-dose tolerability study, PK and plasma protein binding, and cellular IC50s for PI3K isoforms. The doses selected were: high-dose: 50 mg/kg/day, expected to inhibit α, β, δ, and γ PI3K isoforms; Mid-high dose: 20 mg/kg/day, expected to inhibit β, δ, and γ PI3K isoforms; Mid-low dose: 7.5 mg/kg, expected to inhibit γ PI3K isoform only; and Low-dose: 1 mg/kg/day, expected to inhibit γ PI3K isoform only.

GL-261 tumors = test: GL-261 glioma model with or without temozolomide; type: in vivo, mouse; conditions: 15 mg/kg QD PO from the start of treatment, vs vehicle
Protocol: TMZ was dosed IP 1×/day for 7 days.
Animals: C57 Albino mice (male) from Jackson Labs, n=80. Parameters Evaluated:
In life: Mice were dosed QD with Compound BB. Temozolomide was dosed QD IP, for 7 days. Tumor measurements and bodyweights were taken 2×/week, but caliper and xenogen measurements.
End point analysis: Tumors were cut in half. One half was cut in half again with ½ fixed in 10% NBF the other was frozen in OCT for frozen sections. The remaining half was processed to single cell suspension and evaluated by FACS.
PD satellite group—8 mice from the TMZ treated mice and 8 mice from the vehicle treated mice were sacrificed on day 7 post treatment. Tumors were processed to single cell suspension and evaluated by FACS.

[3] = system: tumor cell inhibition of T cell proliferation; test: Ex vivo T cell proliferation (CFSE) with CT26 tumor cells; type: in vivo, mouse; conditions: tumors from treated mice
Protocol: CT26 was an N-nitroso-N-methylurethane-(NNMU) induced, undifferentiated colon carcinoma cell line. It was cloned to generate the cell line designated CT26.WT (ATCC CRL-2638).
The duration of the study was 1 week under treatment. 5-6 week old female, Balb/c mice (Jackson Labs) implanted subcutaneously with 5×10^5 CT26 cells in 100 μl PBS. CT26 cells were cultured in RPMI supplemented with 10% FBS. Dosing commenced when tumors reached an average volume of 500-600 mm^3.
For group 3 (αPD-L1), the mice were dosed once, IP, 200 ug (200 uL from 1 mg/ml stock).
Mice were monitored daily for adverse clinical effects. Body weights and tumor luminescent were measured two times per week. At the end of the study, tumors were harvested and cut into 3 parts; one piece for CTL killing assay, one piece for CSFE proliferation assay and one piece (split into two) for OCT/FFPE.
Spleens from 3 vehicle treated tumor bearing mice were physically dissociated in T cell media and passed through a 70 micron filter. After red cell lysis, the cells were pooled, brought up in PBS and stained with CFSE (invitrogen). After washing, these cells were brought up in 20 ml T cell media. Half the cells received Dynal mouse activator beads (CD3/CD28 crosslinking at a 1:1 concentration). CD3/CD28 beads induce proliferation in splenocytes from tumor bearing mouse (data not shown). […]

C[C@H](NC(=O)c1c(N)nn2cccnc12)c1cc2cccc(C#Cc3cnn(C)c3)c2c(=O)n1-c1ccccc1 [Compound BB]
immune suppressive environment [1]: reduces
Tumor growth, orthotopic 4T1 breast cancer model (4T1 tumors; 7.5 mg/kg PO QD 3 weeks, FIG. 33A): reduced tumor growth
Tumor growth, subcutaneous 4T1 breast cancer model (4T1 tumors; 15 mg/kg PO QD 2 weeks, FIG. 36): demonstrated single agent activity
Anti-tumor effect maintained after discontinuation of treatment (4T1 tumors; subcutaneous 4T1, FIG. 34): at least 6 days
Decrease in body weights compared to vehicle ([2]; high dose animals (50 mg/kg/day)): 5-8%
Histopathology, thymus ([2]; males ≥7.5 mg/kg/day, females 50 mg/kg/day): minimal/mild lymphoid depletion
Mortality and clinical signs ([2]; oral 10 days, any dose level): No mortality or clinical signs were observed
Tolerability, TOT study ([2]; oral, 1, 7.5, 20, 50 mg/kg/day): well-tolerated for 10 days
Histopathology, spleen ([2]; primarily at doses ≥20 mg/kg/day): minimal/mild lymphoid depletion of the marginal zone and periarteriolar lymphoid sheaths (PALS)
Tumor volume, GL-261 glioma model (GL-261 tumors): significant reduction in tumor volume
Suppression of T cell proliferation by cells derived from CT26 tumors [3]: can release the suppression

— patent publication US11541059B2, “Heterocyclic compounds and uses thereof” (Infinity Pharmaceuticals, Inc., priority 2014, dated 2023)
